Values of other authors, collected in patent US8388671B2, “Methods for treatment of aneurysmal tissue” (Medtronic Vascular, Inc., priority 2004, dated 2013).

hydroxy-polyethoxy-dodecane [Polidocanol]
LD50 in mice (mice): 1200 mg/kg
LD50 in rabbits (rabbits): 200 mg/kg
LD50 relative to that of Novocain (rabbits; LD50 greater than that of Novocain): approximately 5 times
